Results on 17 molecules are retold here after patent publication US20250263753A1, “BRIDGED CYCLE-BASED INHIBITORS OF DNA-DEPENDENT PROTEIN KINASE AND COMPOSITIONS AND APPLICATION IN GENE EDITING” (Juno Therapeutics, Inc., priority 2023, published 2025).

SMILES strings stand for the structures. Where two headings read alike, the source gives them in different places. Some results are limits rather than exact numbers.

One test has as its target DNA-PK (Homo sapiens (Human), UniProt P78527). Put plainly: DNA-PK biochemical assay (Reaction Biology HotSpot kinase assay, 10 μM ATP). Here is the method: DNA-PK Biochemical Assay Using Reaction Biology's HotSpot Kinase Assay Protocol:
Reagent: Base Reaction buffer; 20 mM Hepes (pH 7.5), 10 mM MgCl2, 1 mM EGTA, 0.01% Brij35, 0.02 mg/ml BSA, 0.1 mM Na3VO4, 2 mM DTT, 1% DMSO Required cofactors are added individually to each kinase reaction.
Reaction Procedure: 1. Prepare substrate in freshly prepared Reaction Buffer; 2. Deliver any required cofactors to the substrate solution above; 3. Deliver kinase into the substrate solution and gently mix; 4. Deliver compounds in 100% DMSO into the kinase reaction mixture by Acoustic technology (Echo550; nanoliter range), incubate for 20 min at room temperature; 5. Deliver 33P-ATP into the reaction mixture to initiate the reaction; 6. Incubate for 2 hours at room temperature; 7. Detect kinase activity by P81 filter-binding method.

Test [1] has as its target PI3Kδ (His-PIK3CD/PIK3R1, p110 delta/p85 alpha) (Homo sapiens (Human), UniProt O00329). The test can be described thus: PI3Kδ biochemical assay (HTRF/FRET probe). In kind it is binding. To be noted: class symbol. Here is the method: Phosphoinositide 3-kinase (PI3K) Biochemical Assay: A solution was prepared containing 0.2 nM Anti-HIS-Terbium (Cisbio, 64CUSTAZU), 40 nM designed-probe and 1.0 nM His-PIK3CD/PIK3R1 (p110 delta/p85 alpha) in FRET Buffer (20 mM HEPES, 10 mM MgCl2, 0.015% Brij-35, 4 mM DTT, 0.05 mg/mL BSA).
A general note: In TR-FRET formats the signal depends on donor and acceptor labels being close together.

Another test has as its target ATM (Homo sapiens (Human), UniProt Q13315). The test can be described thus: ATM biochemical assay (Reaction Biology HTRF kinase assay, 10 μM ATP). Here is the method:
Ataxia-Telangiectasia Mutated (ATM) Biochemical Assay Using Reaction Biology's HTRF Kinase Assay Protocol:
The assay detects kinase activity by antibody based HTRF assay. The GST-tagged p53 protein serves as substrate and Eu-labeled-antibody with specific phosphorylation site binds upon phosphorylation which is monitored by HTRF from the anti-GST-d2.
Reagent: Reaction buffer; 50 mM Hepes (pH 7.5), 150 mM NaCl, 10 mM MnCl2, 1% Glycerol, 0.01% Brij35, 1 mM DTT, 1% DMSO.
Substrate: Human p53 (aa2-393), RBC produced in E. coli, N-terminal GST-Tag, MW=70.42 kDa.
Detection; MAb Anti-p53-pS15-Eu cryptate, CisBio cat #61P08KAZ; MAb Anti GST-d2
Reaction Procedure: 1. Deliver 2× Enzyme in wells of reaction plate except No E control wells. Add buffer instead; 2. Deliver compounds in 100% DMSO into the kinase reaction mixture by Acoustic technology (Echo550; nanoliter range), incubate for 30 min at room temperature; 3. Deliver 2× substrate+ATP mixture into the reaction mixture to initiate the reaction; 4. Incubate for 2 hours at room temperature.
HTRF Detection: 1. Deliver 2× Stop/Detection mixture and incubate for 2 hours to overnight in the dark. 2. HTRF measurement (Ex/Em1/Em2=320/615/665 nm) in EnVision.

For test [2], the target named is PI3Kα (His-PIK3CA/PIK3R1, p110 alpha/p85 alpha) (Homo sapiens (Human), UniProt P42336). Put plainly: PI3Kα biochemical assay (HTRF/FRET probe). In kind it is binding. As to conditions: class symbol. Here is the method:
Phosphoinositide 3-kinase α (PI3Kα) Biochemical Assay: A solution was prepared containing 0.2 nM Anti-HIS-Terbium (Cisbio, 64CUSTAZU), 3.7 nM designed-probe and 1.0 nM His-PIK3CA/PIK3R1 (p110 alpha/p85 alpha) in FRET Buffer (20 mM HEPES, 10 mM MgCl2, 0.015% Brij-35, 4 mM DTT, 0.05 mg/mL BSA).

The mark [3] stands for this setting: read-out: DNA-PK HotSpot 10 μM ATP IC50, class symbol.
The mark [4] stands for this setting: read-out: ATM HTRF 10 μM ATP IC50, class symbol.

Chain of PI3Kδ (His-PIK3CD/PIK3R1, p110 delta/p85 alpha) (O00329 whole entry, species assumed): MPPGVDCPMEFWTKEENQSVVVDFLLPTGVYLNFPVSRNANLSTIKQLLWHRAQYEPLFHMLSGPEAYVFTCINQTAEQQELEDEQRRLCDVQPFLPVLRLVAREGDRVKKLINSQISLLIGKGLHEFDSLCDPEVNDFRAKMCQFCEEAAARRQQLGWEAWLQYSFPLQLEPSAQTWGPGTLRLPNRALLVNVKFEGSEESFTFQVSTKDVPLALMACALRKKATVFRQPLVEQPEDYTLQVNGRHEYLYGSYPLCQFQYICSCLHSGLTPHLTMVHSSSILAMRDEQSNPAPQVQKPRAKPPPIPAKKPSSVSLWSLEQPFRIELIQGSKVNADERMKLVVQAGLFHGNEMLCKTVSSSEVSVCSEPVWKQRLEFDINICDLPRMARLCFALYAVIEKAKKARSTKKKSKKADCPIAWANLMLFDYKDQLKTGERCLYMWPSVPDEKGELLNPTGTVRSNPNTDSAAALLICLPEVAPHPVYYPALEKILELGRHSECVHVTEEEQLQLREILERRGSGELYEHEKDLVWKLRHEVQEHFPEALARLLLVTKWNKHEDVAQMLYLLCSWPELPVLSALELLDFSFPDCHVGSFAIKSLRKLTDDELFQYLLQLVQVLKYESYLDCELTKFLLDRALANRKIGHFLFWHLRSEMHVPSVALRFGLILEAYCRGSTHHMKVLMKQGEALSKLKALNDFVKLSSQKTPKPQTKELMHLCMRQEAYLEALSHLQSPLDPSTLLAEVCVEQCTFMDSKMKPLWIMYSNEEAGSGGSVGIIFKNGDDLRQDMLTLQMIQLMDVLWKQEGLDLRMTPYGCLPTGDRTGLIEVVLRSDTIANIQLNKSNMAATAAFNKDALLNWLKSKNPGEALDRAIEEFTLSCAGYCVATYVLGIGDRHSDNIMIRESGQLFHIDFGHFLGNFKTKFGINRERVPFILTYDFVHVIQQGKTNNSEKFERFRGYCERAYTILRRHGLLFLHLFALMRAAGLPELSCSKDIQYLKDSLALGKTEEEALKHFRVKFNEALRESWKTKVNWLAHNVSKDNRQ
Chain of PI3Kδ (His-PIK3CD/PIK3R1, p110 delta/p85 alpha) (P27986 whole entry partner, species assumed): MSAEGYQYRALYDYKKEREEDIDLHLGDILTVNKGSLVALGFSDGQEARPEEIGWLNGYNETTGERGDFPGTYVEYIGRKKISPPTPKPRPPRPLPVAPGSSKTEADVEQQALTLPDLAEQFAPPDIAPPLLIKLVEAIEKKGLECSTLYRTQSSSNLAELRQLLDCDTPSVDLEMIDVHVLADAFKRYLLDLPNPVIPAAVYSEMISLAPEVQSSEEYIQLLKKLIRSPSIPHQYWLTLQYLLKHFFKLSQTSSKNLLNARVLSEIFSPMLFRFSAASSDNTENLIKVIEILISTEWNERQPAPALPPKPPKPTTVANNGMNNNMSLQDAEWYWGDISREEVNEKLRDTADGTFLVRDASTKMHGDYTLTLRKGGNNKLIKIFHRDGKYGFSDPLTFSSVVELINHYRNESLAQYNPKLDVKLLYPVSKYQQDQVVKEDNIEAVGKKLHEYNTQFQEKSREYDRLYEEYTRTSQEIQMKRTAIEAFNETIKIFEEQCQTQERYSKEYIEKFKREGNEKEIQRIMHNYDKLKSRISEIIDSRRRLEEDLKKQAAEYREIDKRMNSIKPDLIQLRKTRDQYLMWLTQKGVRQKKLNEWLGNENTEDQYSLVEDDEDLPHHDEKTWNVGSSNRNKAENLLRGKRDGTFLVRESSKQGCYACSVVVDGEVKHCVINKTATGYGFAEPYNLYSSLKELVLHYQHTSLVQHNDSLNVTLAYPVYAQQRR
Chain of PI3Kα (His-PIK3CA/PIK3R1, p110 alpha/p85 alpha) (P42336 whole entry, species assumed): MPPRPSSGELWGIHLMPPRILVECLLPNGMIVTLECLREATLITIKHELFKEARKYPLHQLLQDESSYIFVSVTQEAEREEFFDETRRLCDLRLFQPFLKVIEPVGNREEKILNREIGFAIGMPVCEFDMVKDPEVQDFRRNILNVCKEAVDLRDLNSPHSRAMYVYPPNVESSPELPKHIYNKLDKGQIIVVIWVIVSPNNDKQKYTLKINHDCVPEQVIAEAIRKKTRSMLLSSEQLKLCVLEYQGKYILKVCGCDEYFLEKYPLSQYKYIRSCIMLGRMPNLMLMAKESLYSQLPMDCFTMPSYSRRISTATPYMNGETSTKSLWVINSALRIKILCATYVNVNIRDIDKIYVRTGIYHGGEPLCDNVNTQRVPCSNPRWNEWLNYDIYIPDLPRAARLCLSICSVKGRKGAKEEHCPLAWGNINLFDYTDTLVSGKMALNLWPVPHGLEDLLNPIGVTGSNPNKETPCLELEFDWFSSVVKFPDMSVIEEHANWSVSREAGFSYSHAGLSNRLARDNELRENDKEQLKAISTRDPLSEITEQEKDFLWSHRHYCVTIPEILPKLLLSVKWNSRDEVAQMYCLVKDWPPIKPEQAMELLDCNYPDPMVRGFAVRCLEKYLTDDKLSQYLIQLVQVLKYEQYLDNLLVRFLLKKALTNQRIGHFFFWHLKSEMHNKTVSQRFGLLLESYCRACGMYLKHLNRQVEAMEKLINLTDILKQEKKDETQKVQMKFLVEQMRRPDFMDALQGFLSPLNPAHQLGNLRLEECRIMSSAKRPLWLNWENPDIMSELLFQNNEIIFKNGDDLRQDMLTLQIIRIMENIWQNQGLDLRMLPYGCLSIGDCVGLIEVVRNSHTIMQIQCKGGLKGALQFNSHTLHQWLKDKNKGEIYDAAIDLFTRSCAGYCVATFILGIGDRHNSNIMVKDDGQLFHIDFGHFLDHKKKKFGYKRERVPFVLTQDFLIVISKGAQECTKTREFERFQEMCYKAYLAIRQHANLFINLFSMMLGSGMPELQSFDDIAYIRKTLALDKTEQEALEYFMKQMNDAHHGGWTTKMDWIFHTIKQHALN
Chain of PI3Kα (His-PIK3CA/PIK3R1, p110 alpha/p85 alpha) (P27986 whole entry partner, species assumed): as the sequence (P27986 whole entry partner, species assumed) above

A word on the IC50: it is the concentration that inhibits the measured activity by half. As to `COC12CCC(n3c(=O)n(C)c4cnc(Nc5cn6ncnc6cc5C)nc43)(C1)C2` [Compound 29, 9-(4-methoxybicyclo[2.1.1]hexan-1-yl)-7-methyl-2-((7-methyl-[1,2,4]triazolo[1,5-a]pyridin-6-yl)amino)-7,9-dihydro-8H-purin-8-one], the IC50 was 1 to 10 nM against DNA-PK (class symbol), not below 1000 nM in test [1], 100 to 1000 nM on ATM (class symbol) and not below 1000 nM in test [2].
For the molecule `COC12CCC(n3c(=O)n(C)c4cnc(Nc5cc6nsnc6cc5C)nc43)(C1)C2` [Compound 30, 9-(4-methoxybicyclo[2.1.1]hexan-1-yl)-7-methyl-2-((6-methylbenzo[c][1,2,5]thiadiazol-5-yl)amino)-7,9-dihydro-8H-purin-8-one], the IC50 at DNA-PK (setting [3]) is less than 1 nM; in test [1] it was not below 1000 nM; on ATM (class symbol), 100 to 1000 nM; in test [2] it was 100 to 1000 nM.
As for `Cc1cc2ncnn2cc1Nc1ncc2c(n1)n(C13CCC(O)(CC1)C3)c(=S)n2C` [Compound 31, 9-(4-hydroxybicyclo[2.2.1]heptan-1-yl)-7-methyl-2-((7-methyl-[1,2,4]triazolo[1,5-a]pyridin-6-yl)amino)-7,9-dihydro-8H-purine-8-thione], the IC50 lay within 1 to 10 nM against DNA-PK (class symbol), 10 to 100 nM in test [1], 100 to 1000 nM against ATM (class symbol) and 100 to 1000 nM in test [2].
As for `Cc1cc2nccnc2cc1Nc1ncc2c(n1)n(C13CCC(O)(CC1)C3)c(=S)n2C` [Compound 33, 9-(4-hydroxybicyclo[2.2.1]heptan-1-yl)-7-methyl-2-((7-methylquinoxalin-6-yl)amino)-7,9-dihydro-8H-purine-8-thione], the IC50 lay in the range of 1 to 10 nM against DNA-PK (class symbol), 10 to 100 nM in test [1], 100 to 1000 nM on ATM (class symbol) and 100 to 1000 nM in test [2].
For the molecule `Cc1cc2ncnn2cc1Nc1ncc2c(n1)n(C13CC(F)(C1)C3)c(=S)n2C` [Compound 34, 9-(3-fluorobicyclo[1.1.1]pentan-1-yl)-7-methyl-2-((7-methyl-[1,2,4]triazolo[1,5-a]pyridin-6-yl)amino)-7,9-dihydro-8H-purine-8-thione], the IC50 at DNA-PK (class symbol) is 10 to 100 nM; in test [1], 100 to 1000 nM; on ATM (setting [4]), not below 1000 nM; in test [2] it was not below 1000 nM.
As to `Cc1cc2c(cc1Nc1ncc3c(n1)n(C14CC(F)(C1)C4)c(=S)n3C)OCO2` [Compound 35, 9-(3-fluorobicyclo[1.1.1]pentan-1-yl)-7-methyl-2-((6-methylbenzo[d][1,3]dioxol-5-yl)amino)-7,9-dihydro-8H-purine-8-thione], the IC50 on DNA-PK (class symbol) is 100 to 1000 nM; in test [1] it was not below 1000 nM; at ATM (setting [4]), not below 1000 nM; in test [2] it was not below 1000 nM.
Turning to `Cc1cc(-c2cnco2)c(F)cc1Nc1ncc2c(n1)n(C13CCC(O)(CC1)C3)c(=O)n2C` [Compound 36, 2-((5-fluoro-2-methyl-4-(oxazol-5-yl)phenyl)amino)-9-(4-hydroxybicyclo[2.2.1]heptan-1-yl)-7-methyl-7,9-dihydro-8H-purin-8-one], the IC50 at DNA-PK (setting [3]) was less than 1 nM; in test [1], not below 1000 nM; at ATM (setting [4]) it was less than 1 nM; in test [2], 100 to 1000 nM.
Consider `Cc1cc(-c2cnn(C)c2)c(F)cc1Nc1ncc2c(n1)n(C13CCC(O)(CC1)C3)c(=O)n2C` [Compound 37, 2-((5-fluoro-2-methyl-4-(1-methyl-1H-pyrazol-4-yl)phenyl)amino)-9-(4-hydroxybicyclo[2.2.1]heptan-1-yl)-7-methyl-7,9-dihydro-8H-purin-8-one], for which the IC50 is less than 1 nM on DNA-PK (setting [3]), not below 1000 nM in test [1], 1 to 10 nM against ATM (class symbol) and 100 to 1000 nM in test [2].
With `COC12CCC(n3c(=O)n(C)c4cnc(Nc5cc(F)c(-c6cnn(C)c6)cc5C)nc43)(C1)C2` [Compound 39, 2-((5-fluoro-2-methyl-4-(1-methyl-1H-pyrazol-4-yl)phenyl)amino)-9-(4-methoxybicyclo[2.1.1]hexan-1-yl)-7-methyl-7,9-dihydro-8H-purin-8-one], the IC50 against DNA-PK (class symbol) was 10 to 100 nM; in test [1], not below 1000 nM; on ATM (class symbol), 10 to 100 nM; in test [2], 100 to 1000 nM.
On to `COC12CCC(n3c(=O)n(C)c4cnc(Nc5cc(F)c(C(N)=O)cc5C)nc43)(C1)C2` [Compound 40, 2-fluoro-4-((9-(4-methoxybicyclo[2.1.1]hexan-1-yl)-7-methyl-8-oxo-8,9-dihydro-7H-purin-2-yl)amino)-5-methylbenzamide], for which the IC50 against DNA-PK (class symbol) was 1 to 10 nM; in test [1], not below 1000 nM; at ATM (class symbol), 100 to 1000 nM; in test [2] it was 100 to 1000 nM.
Regarding `COC12CCC(n3c(=O)n(C)c4cnc(Nc5cc(F)c(-c6cnco6)cc5C)nc43)(C1)C2` [Compound 41, 2-((5-fluoro-2-methyl-4-(oxazol-5-yl)phenyl)amino)-9-(4-methoxybicyclo[2.1.1]hexan-1-yl)-7-methyl-7,9-dihydro-8H-purin-8-one], the IC50 against DNA-PK (class symbol) was 1 to 10 nM; in test [1], not below 1000 nM; against ATM (class symbol), 1 to 10 nM; in test [2], 100 to 1000 nM.
With `Cc1cc2ncnn2cc1Nc1ncc2c(C)nn(C34CC(C3)C4)c2n1` [Compound 47, 1-(bicyclo[1.1.1]pentan-1-yl)-3-methyl-N-(7-methyl-[1,2,4]triazolo[1,5-a]pyridin-6-yl)-1H-pyrazolo[3,4-d]pyrimidin-6-amine], the IC50 at DNA-PK (class symbol) is 1 to 10 nM; in test [1] it was not below 1000 nM; on ATM (class symbol), 100 to 1000 nM; in test [2], not below 1000 nM.
`Cc1cc2c(cc1Nc1ncc3c(C)nn(C45CC(C4)C5)c3n1)OCO2` [Compound 48, 1-(bicyclo[1.1.1]pentan-1-yl)-3-methyl-N-(6-methylbenzo[d][1,3]dioxol-5-yl)-1H-pyrazolo[3,4-d]pyrimidin-6-amine]: the IC50 against DNA-PK (class symbol) was 1 to 10 nM; in test [1], not below 1000 nM; at ATM (class symbol), 100 to 1000 nM; in test [2], not below 1000 nM.
As for `Cc1cc2nccnc2cc1Nc1ncc2c(C)nn(C34CC(C3)C4)c2n1` [Compound 49, N-(1-(bicyclo[1.1.1]pentan-1-yl)-3-methyl-1H-pyrazolo[3,4-d]pyrimidin-6-yl)-7-methylquinoxalin-6-amine], the IC50 on DNA-PK (setting [3]) was less than 1 nM; in test [1], 100 to 1000 nM; against ATM (class symbol), 10 to 100 nM; in test [2] it was 100 to 1000 nM.
`Cc1cc2nsnc2cc1Nc1ncc2c(C)nn(C34CC(C3)C4)c2n1` [Compound 50, N-(1-(bicyclo[1.1.1]pentan-1-yl)-3-methyl-1H-pyrazolo[3,4-d]pyrimidin-6-yl)-6-methylbenzo[c][1,2,5]thiadiazol-5-amine]: the IC50 at DNA-PK (setting [3]) was less than 1 nM; in test [1], not below 1000 nM; at ATM (class symbol), 10 to 100 nM; in test [2], not below 1000 nM.
`Cc1cc2ncnn2cc1Nc1ncc2c(n1)N(C13CCC(O)(CC1)C3)CC(=O)N2C` [Compound 51, 8-{4-Hydroxybicyclo[2.2.1]heptan-1-yl}-5-methyl-2-({7-methyl-[1,2,4]triazolo[1,5-a]pyridin-6-yl}amino)-5,6,7,8-tetrahydropteridin-6-one]: the IC50 at DNA-PK (class symbol) is 1 to 10 nM; in test [1], 100 to 1000 nM; at ATM (class symbol), 100 to 1000 nM; in test [2] it was 100 to 1000 nM.
For `Cc1cc2c(cc1Nc1ncc3c(n1)N(C14CCC(O)(CC1)C4)CC(=O)N3C)OCO2` [Compound 52, 8-{4-Hydroxybicyclo[2.2.1]heptan-1-yl}-5-methyl-2-[(6-methyl-2H-1,3-benzodioxol-5-yl)amino]-5,6,7,8-tetrahydropteridin-6-one], the IC50 on DNA-PK (class symbol) is 10 to 100 nM; in test [1], not below 1000 nM; at ATM (setting [4]), not below 1000 nM; in test [2] it was not below 1000 nM.
